This is an account of results in patent US20240294551A1 (AMGEN INC., priority 2022, published 2024).

Molecules are shown by their SMILES. pIC50: −log10 of the molar value.

For test [1], the target named is His-tagged KRAS G12D protein (Homo sapiens (Human), UniProt P01116, G12D). Kind of test: KRAS G12D TR-FRET Assay. It is filed as binding. As to conditions: read-out: KRAS G12D Binding IC50. The essentials: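 Each incubation ran at room temperature: enzyme with compound for 30 minutes, peptide for one hour, and detection reagents (0.4 nM europium anti-6×His, 5 nM streptavidin-d2) for one hour more. Protein and peptide stocks were each diluted to 20 nM before addition.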
His-tagged KRAS G12D protein, sequence (P01116 other isoform, or with tags, fused parts or gaps G12D): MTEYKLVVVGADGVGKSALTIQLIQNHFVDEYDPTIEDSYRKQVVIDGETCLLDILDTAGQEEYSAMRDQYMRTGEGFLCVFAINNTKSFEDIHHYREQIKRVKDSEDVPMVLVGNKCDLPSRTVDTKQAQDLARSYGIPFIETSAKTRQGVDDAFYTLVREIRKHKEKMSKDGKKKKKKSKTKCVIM

For test [2], the target named is GDP-bound KRAS protein (aa 1-169), containing both G12D and C118A amino acid substitutions (Homo sapiens (Human), UniProt P01116, C118A/G12D). Kind of test: KRAS G12D Coupled Nucleotide Exchange Assay. Format: biochemical. The note with it: read-out: KRAS G12D Coupled Exchange IC50.
GDP-bound KRAS protein (aa 1-169), containing both G12D and C118A amino acid substitutions, sequence (P01116 other isoform, or with tags, fused parts or gaps G12D/C118A): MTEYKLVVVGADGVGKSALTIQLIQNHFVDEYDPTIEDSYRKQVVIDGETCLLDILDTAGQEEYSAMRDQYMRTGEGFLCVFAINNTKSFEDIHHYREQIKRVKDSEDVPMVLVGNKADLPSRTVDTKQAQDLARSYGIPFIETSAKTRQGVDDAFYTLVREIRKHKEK
The test system of test [3] is Phosphorylation of ERK1/2 in AsPC-1 cells. Put plainly: Phospho-ERK1/2 MSD Assay. Format: cell-based, human. The note with it: Homo sapiens, ASPC1, 2 h, read-out: 2 h p-ERK (AsPC-1 cells), IC50. The essentials: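 Read-out: MSD electrochemiluminescent detection of phosphorylated ERK1/2 in whole-cell lysates, fitted to a 4-parameter logistic curve for IC50. Prior to lysis, AsPC-1 cells (25,000 per well) received a 2 h compound dose-response at 37 °C.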

The test system of another test is AsPC-1 cells. Kind of test: AsPC-1 CTG Assay (CellTiter-Glo cell viability). It is filed as cell-based, human. The note with it: Homo sapiens, ASPC1, 72 h, AsPC-1, 72 h; first value of the cell; read-out: G12D/C/V Cell Proliferation CTG (72 h) AsPC-1. The essentials:
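IC50 values derive from 4-parameter logistic fits of CellTiter-Glo luminescence, expressed relative to DMSO. Compound dilution series were applied to overnight-seeded AsPC-1 or SW620 cells (RPMI 1640, 10% FBS) for 72 h at 37 °C, 5% CO2.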
On the technique in general: ATP-based viability assays read luminescence as a measure of living cells.

For the next test, the system named is SW620 cells. Kind of test: SW620 CTG Assay (CellTiter-Glo cell viability). Format: cell-based, human. As to conditions: Homo sapiens, SW-620; SW620, 72 h; third value of the cell; read-out: G12D/C/V Cell Proliferation CTG (72 h) SW620. The protocol:
AsPC-1 and SW620 CTG Assay Protocols
AsPC-1 (human pancreatic adenocarcinoma; ATCC CRL-1682) or SW620 (human colon adenocarcinoma; ATCC CCL-227) cells were cultured in RPMI 1640 medium containing 10% fetal bovine serum and 1× penicillin/streptomycin/L-glutamine. Cells were seeded in 384-well plates at a density of 3.33E+04 cells/mL and incubated at 37° C., 5% CO2, overnight. Serially-diluted compound or DMSO was added to the cells, and plates were incubated at 37° C., 5% CO2 for 72 h. Cell viability was measured using a CellTiter-Glo® Luminescent Cell Viability Assay kit (Promega) according to the manufacturer's protocol. The luminescence signal of treated samples was normalized to DMSO control, and data were analyzed using a 4-parameter logistic model to calculate IC50 values.

For `C[C@@]12CCCN(C1)c1nc(OC[C@@]34CCCN3C[C@H](F)C4)nc3c(F)c(ncc13)-c1cccc3ccc(F)c(c13)CC[C@H](F)C(=O)N2` [Example 12, (15R,18S)-18,22,31-trifluoro-8-(((2R,7aS)-2-fluorotetrahydro-1H-pyrrolo[1,2-a]pyrrol-7a(5H)-yl)methoxy)-15-methyl-3,7,9,11,16-pentaazahexacyclo[19.7.1.1˜2,6˜.1˜11,15˜.0˜5,10˜.0˜25,29˜]hentriaconta-1(28),2(31),3,5,7,9,21,23,25(29),26-decaen-17-one], the pIC50 in test [1] was 8.22; in test [2], 8.52; in test [3], 7.28; in the test on AsPC-1 cells, 6.31; with SW620 cells it was 6.37.

As to `Cc1cc2[nH]ncc2c2c1CCCOC(=O)O[C@@H]1CCCN(C1)c1nc(OC[C@@]34CCCN3C[C@H](F)C4)nc3c(F)c-2ncc13` [Example 38, (17R)-30-Fluoro-24-(((2R,7aS)-2-fluorotetrahydro-1H-pyrrolo[1,2-a]pyrrol-7a(5H)-yl)methoxy)-9-methyl-14,16-dioxa-5,6,21,23,25,29-hexaazahexacyclo[24.3.1.1˜17,21˜.0˜2,10˜.0˜3,7˜.0˜22,27˜]hentriaconta-1(30),2,4,7,9,22,24,26,28-nonaen-15-one bis(2,2,2-trifluoroacetate)], the pIC50 in test [1] was 8.70; in test [2] it was 8.70; in test [3], 7.70; with AsPC-1 cells, 6.35; in the test on SW620 cells, 7.12.

In the case of `CN1C(=O)CCCCc2c(Cl)cc3[nH]ncc3c2-c2ncc3c(nc(OC[C@@]45CCCN4C[C@H](F)C5)nc3c2F)N2CCC[C@@H]1C2` [Example 53, (17R)-9-chloro-30-fluoro-24-(((2R,7aS)-2-fluorotetrahydro-1H-pyrrolo[1,2-a]pyrrol-7a(5H)-yl)methoxy)-16-methyl-5,6,16,21,23,25,29-heptaazahexacyclo[24.3.1.1~17,21~.0~2,10~.0~3,7~.0~22,27~]hentriaconta-1(30),2,4,7,9,22,24,26,28-nonaen-15-one], the pIC50 was 8.10 in test [1]; 8.40 in test [2]; 7.13 in test [3]; 6.32 with AsPC-1 cells; 6.82 with SW620 cells.

As for `O=C1CCCCc2c(Cl)cc3[nH]ncc3c2-c2ncc3c(nc(OC[C@@]45CCCN4C[C@H](F)C5)nc3c2F)N2CC[C@H]3CCN1[C@H]3C2` [Example 62, (28S,32R)-18-chloro-33-fluoro-4-(((2R,7aS)-2-fluorotetrahydro-1H-pyrrolo[1,2-a]pyrrol-7a(5H)-yl)methoxy)-1,3,5,9,14,15,25-heptaazaheptacyclo[23.5.2.1~6,10~.0~2,7~.0~11,19~.0~12,16~.0~28,32~]tritriaconta-2,4,6,8,10(33),11,13,16,18-nonaen-24-one], the pIC50 in test [1] is 8.52; in test [2], 8.70; in test [3], 8.40; in the test on AsPC-1 cells, 7.15; in the test with SW620 cells, 8.00.

`O=C1OCCCc2c(Cl)cc3[nH]ncc3c2-c2ncc3c(nc(OC[C@@]45CCCN4C[C@H](F)C5)nc3c2F)N2CCCC[C@H](C2)O1` [Example 100, (26R)-18-chloro-32-fluoro-4-(((2R,7aS)-2-fluorotetrahydro-1H-pyrrolo[1,2-a]pyrrol-7a(5H)-yl)methoxy)-23,25-dioxa-1,3,5,9,14,15-hexaazahexacyclo[24.4.1.1~6,10~.0~2,7~.0~11,19~.0~12,16~]dotriaconta-2,4,6,8,10(32),11,13,16,18-nonaen-24-one]: the pIC50 in test [1] was 8.70; in test [2] it was 9.00; in test [3], 8.40; with AsPC-1 cells, 7.22; in the test on SW620 cells, 8.00.

In the case of `O=C1OCCCc2c(F)cc3[nH]ncc3c2-c2ncc3c(nc(OC[C@@]45CCCN4C[C@H](F)C5)nc3c2F)N2CCC[C@H](C2)O1` [Example 112], the pIC50 in test [1] is 8.30; in test [2], 8.52; in test [3] it was 7.32; in the test on AsPC-1 cells, 6.44; in the test on SW620 cells it was 6.86.

As to `Fc1c2ncc3c(nc(OC[C@@]45CCCN4C[C@H](F)C5)nc13)N1CCCC(C1)c1cnn(n1)CCCc1c(Cl)cc3[nH]ncc3c1-2` (some centres unmarked) [Example 148], the pIC50 in test [1] was 8.15; in test [2] it was 8.30; in test [3], 7.38; with AsPC-1 cells, 6.34; with SW620 cells, 6.78.

Consider `Fc1c2ncc3c(nc(OC[C@@]45CCCN4C[C@H](F)C5)nc13)N1CCCC(C1)c1cnn(n1)C/C=C/c1c(Cl)cc3[nH]ncc3c1-2` (some centres unmarked) [Example 149], for which the pIC50 was 7.22 in test [1]; 7.47 in test [2]; 7.48 in test [3]; 6.33 in the test with AsPC-1 cells; 6.81 in the test with SW620 cells.

Regarding `Cc1cc2[nH]ncc2c2c1[C@H]1C[C@H]1COCC[C@@H]1CCCN(C1)c1nc(OC[C@@]34CCCN3C[C@H](F)C4)nc3c(F)c-2ncc13` [Example 153, (11S,13R,18S)-31-fluoro-25-(((2R,7aS)-2-fluorotetrahydro-1H-pyrrolo[1,2-a]pyrrol-7a(5H)-yl)methoxy)-9-methyl-15-oxa-5,6,22,24,26,30-hexaazaheptacyclo[25.3.1.1~18,22~.0~2,10~.0~3,7~.0~11,13~.0~23,28~]dotriaconta-1(31),2,4,7,9,23,25,27,29-nonaene], the pIC50 in test [1] is 8.52; in test [2], 8.52; in test [3] it was 8.05; with AsPC-1 cells it was 6.68; in the test with SW620 cells, 7.49.

As to `Fc1c2ncc3c(nc(OC[C@@]45CCCN4C[C@H](F)C5)nc13)N1CCC[C@H](C1)Cn1ncc(n1)/C=C\c1c(Cl)cc3[nH]ncc3c1-2` [Example 155, (11Z,18R)-9-chloro-31-fluoro-25-(((2R,7aS)-2-fluorotetrahydro-1H-pyrrolo[1,2-a]pyrrol-7a(5H)-yl)methoxy)-5,6,15,16,22,24,26,30,33-nonaazaheptacyclo[25.3.1.1~13,16~.1~18,22~.0~2,10~.0~3,7~.0~23,28~]tritriaconta-1(31),2,4,7,9,11,13(33),14,23,25,27,29-dodecaen], the pIC50 in test [1] is 8.22; in test [2], 8.30; in test [3], 7.28; in the test on AsPC-1 cells, 6.14; in the test on SW620 cells, 6.52.

Consider `Fc1c2ncc3c(nc(OC[C@@]45CCCN4C[C@H](F)C5)nc13)N1CCC[C@H](C1)Cn1ncc(n1)CCc1c(Cl)cc3[nH]ncc3c1-2` [Example 156, (18R)-9-chloro-31-fluoro-25-(((2R,7aS)-2-fluorotetrahydro-1H-pyrrolo[1,2-a]pyrrol-7a(5H)-yl)methoxy)-5,6,15,16,22,24,26,30,33-nonaazaheptacyclo[25.3.1.1~13,16~.1~18,22~.0~2,10~.0~3,7~.0~23,28~]tritriaconta-1(31),2,4,7,9,13(33),14,23,25,27,29-undecaene], for which the pIC50 in test [1] is 7.92; in test [2], 8.52; in test [3], 6.96; in the test with AsPC-1 cells, 6.14; in the test with SW620 cells, 6.44.

`Fc1c2ncc3c(nc(OC[C@@]45CCCN4C[C@H](F)C5)nc13)N1CCOC[C@H](C1)OC(=S)OCCCc1c(Cl)cc3[nH]ncc3c1-2` [Example 199, (26S)-18-chloro-32-fluoro-4-(((2R,7aS)-2-fluorotetrahydro-1H-pyrrolo[1,2-a]pyrrol-7a(5H)-yl)methoxy)-23,25,28-trioxa-1,3,5,9,14,15-hexaazahexacyclo[24.4.1.1~6,10~.0~2,7~.0~11,19~.0~12,16~]dotriaconta-2,4,6,8,10(32),11,13,16,18-nonaene-24-thione]: the pIC50 was 8.40 in test [1]; 8.52 in test [2]; 7.80 in test [3]; 7.34 in the test with AsPC-1 cells; 7.66 with SW620 cells.

Turning to `CN1CCC[C@H]1COc1nc2c3cnc(c(F)c3n1)-c1c(c(Cl)cc3[nH]ncc13)CCCOC(=O)O[C@@H]1COCCN2C1` [Example 207, (26S)-18-chloro-32-fluoro-4-(((2S)-1-methyl-2-pyrrolidinyl)methoxy)-23,25,28-trioxa-1,3,5,9,14,15-hexaazahexacyclo[24.4.1.1~6,10~.0~2,7~.0~11,19~.0~12,16~]dotriaconta-2,4,6,8,10(32),11,13,16,18-nonaen-24-one], the pIC50 in test [1] is 8.40; in test [2] it was 8.70; in test [3] it was 7.83; with AsPC-1 cells, 6.71; in the test on SW620 cells it was 7.24.
